In PubChem BioAssay AID256 (DTP/NCI, 2004):
Toxic doses and inconclusive results are not listed. How the source made its calls: active means survival T/C of 150% or more; inactive means T/C below 125% in these data.

Tested on: CD2F1 mice, L1210 leukemia ip, survival T/C
Experiment: NCI In Vivo Anticancer Drug Screen. Data for tumor model L1210 Leukemia (intraperitoneal) in CD2F1 (CDF1) mice
Conditions: higher = longer survival
Summary of the method: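 Antitumor effect is scored in animals hosting a serially transplanted tumor. Values compare compound-dosed animals against vehicle-only controls as a simple quotient.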

[1] = endpoint: mean survival time, dose: 100.0 mg/kg/injection, schedule: Q01DX001 (ip), vehicle: saline
[2] = endpoint: mean survival time, dose: 200.0 mg/kg/injection, schedule: Q01DX001 (ip), vehicle: saline
[3] = endpoint: mean survival time, dose: 400.0 mg/kg/injection, schedule: Q01DX001 (ip), vehicle: saline
[4] = endpoint: mean survival time, dose: 100.0 mg/kg/injection, schedule: Q04DX003 (ip), vehicle: other
[5] = endpoint: mean survival time, dose: 200.0 mg/kg/injection, schedule: Q04DX003 (ip), vehicle: other
[6] = endpoint: mean survival time, dose: 400.0 mg/kg/injection, schedule: Q04DX003 (ip), vehicle: other
[7] = endpoint: mean survival time, dose: 50.0 mg/kg/injection, schedule: Q04DX003 (ip), vehicle: acetone
[8] = endpoint: mean survival time, dose: 100.0 mg/kg/injection, schedule: Q01DX001 (ip), vehicle: saline with Tween-80
[9] = endpoint: mean survival time, dose: 200.0 mg/kg/injection, schedule: Q01DX001 (ip), vehicle: saline with Tween-80
[10] = endpoint: mean survival time, dose: 400.0 mg/kg/injection, schedule: Q01DX001 (ip), vehicle: saline with Tween-80
[11] = endpoint: mean survival time, dose: 100.0 mg/kg/injection, schedule: Q04DX003 (ip), vehicle: saline with Tween-80
[12] = endpoint: mean survival time, dose: 200.0 mg/kg/injection, schedule: Q04DX003 (ip), vehicle: saline with Tween-80
[13] = endpoint: mean survival time, dose: 400.0 mg/kg/injection, schedule: Q04DX003 (ip), vehicle: saline with Tween-80
[14] = endpoint: mean survival time, dose: 100.0 mg/kg/injection, schedule: Q01DX009 (ip), vehicle: saline with Tween-80
[15] = endpoint: mean survival time, dose: 200.0 mg/kg/injection, schedule: Q01DX009 (ip), vehicle: saline with Tween-80
[16] = endpoint: mean survival time, dose: 400.0 mg/kg/injection, schedule: Q01DX009 (ip), vehicle: saline with Tween-80
[17] = endpoint: mean survival time, dose: 12.5 mg/kg/injection, schedule: Q01DX009 (ip), vehicle: water
[18] = endpoint: mean survival time, dose: 25.0 mg/kg/injection, schedule: Q01DX009 (ip), vehicle: water
[19] = endpoint: mean survival time, dose: 50.0 mg/kg/injection, schedule: Q01DX009 (ip), vehicle: water
[20] = endpoint: mean survival time, dose: 100.0 mg/kg/injection, schedule: Q01DX009 (ip), vehicle: water
[21] = endpoint: mean survival time, dose: 200.0 mg/kg/injection, schedule: Q01DX009 (ip), vehicle: water
[22] = endpoint: mean survival time, dose: 100.0 mg/kg/injection, schedule: Q04DX002 (ip), vehicle: saline with Tween-80

Measured: T/C

N#Cc1cn(C2OC(CO)C(O)C2O)c2[nH]cnc(=S)c12 (stereo not given)
inactive: [1] 103 % of control | [2] 108 % of control | [3] 109 % of control

CCCCCCCCCCC(=O)CCCCCC
inactive: [4] 89 % of control | [5] 92 % of control | [6] 118 % of control

CC(C)CN1CCCC(=O)C(O)CCC1 (stereo not given)
inactive: endpoint: mean survival time, dose: 25.0 mg/kg/injection, schedule: Q01DX009 (ip), vehicle: acetone 98 % of control | endpoint: mean survival time, dose: 50.0 mg/kg/injection, schedule: Q01DX009 (ip), vehicle: acetone 93 % of control

C1CCC2CCCN2CC1 (stereo not given)
inactive: endpoint: mean survival time, dose: 12.5 mg/kg/injection, schedule: Q01DX009 (ip), vehicle: saline with Tween-80 95 % of control | endpoint: mean survival time, dose: 12.5 mg/kg/injection, schedule: Q04DX003 (ip), vehicle: acetone 94 % of control | endpoint: mean survival time, dose: 25.0 mg/kg/injection, schedule: Q01DX009 (ip), vehicle: saline with Tween-80 94 % of control | endpoint: mean survival time, dose: 25.0 mg/kg/injection, schedule: Q04DX003 (ip), vehicle: acetone 92 % of control | [7] 100 % of control

CCCCCCCCC(=O)N1CCN(C(=O)CCCCCCCC)C1
inactive: endpoint: mean survival time, dose: 75.0 mg/kg/injection, schedule: Q04DX003 (ip), vehicle: saline 94 % of control | endpoint: mean survival time, dose: 150.0 mg/kg/injection, schedule: Q04DX003 (ip), vehicle: saline 97 % of control | endpoint: mean survival time, dose: 300.0 mg/kg/injection, schedule: Q04DX003 (ip), vehicle: saline 95 % of control

OCC(O)C(O)C(O)c1csc(=S)[nH]1 (stereo not given)
inactive: [8] 97 % of control | [9] 103 % of control | [10] 100 % of control

Cc1cccc(Cl)c1NC(=O)CS
inactive: [11] 98 % of control | [12] 98 % of control | [13] 98 % of control

COCC(=O)c1ccccc1
inactive: [14] 96 % of control | [15] 96 % of control | [16] 94 % of control

CCOc1ccc(-n2c(=O)c(N=Nc3ccccc3)c(O)n(-c3ccccc3OC)c2=S)cc1
inactive: [8] 102 % of control | [9] 89 % of control | [10] 90 % of control

O=P1(N(CCCl)CCCl)OCCC(c2ccccc2)N1Cl (stereo not given)
inactive: endpoint: mean survival time, dose: 43.75 mg/kg/injection, schedule: Q01DX001 (ip), vehicle: distilled water + Tween-80 106 % of control | endpoint: mean survival time, dose: 87.5 mg/kg/injection, schedule: Q01DX001 (ip), vehicle: distilled water + Tween-80 103 % of control | endpoint: mean survival time, dose: 175.0 mg/kg/injection, schedule: Q01DX001 (ip), vehicle: distilled water + Tween-80 106 % of control | endpoint: mean survival time, dose: 350.0 mg/kg/injection, schedule: Q01DX001 (ip), vehicle: distilled water + Tween-80 110 % of control

O=Nc1ccc(NO)c2ccccc12
inactive: endpoint: mean survival time, dose: 50.0 mg/kg/injection, schedule: Q01DX009 (ip), vehicle: saline 98 % of control | endpoint: mean survival time, dose: 100.0 mg/kg/injection, schedule: Q01DX009 (ip), vehicle: saline 102 % of control | endpoint: mean survival time, dose: 200.0 mg/kg/injection, schedule: Q01DX009 (ip), vehicle: saline 102 % of control

C[N+](C)(CC(=O)Nc1ccc(Cl)c(Cl)c1)CC(=O)c1ccc(Cl)cc1
inactive: endpoint: mean survival time, dose: 25.0 mg/kg/injection, schedule: Q01DX009 (ip), vehicle: saline 87 % of control

O=S(=O)(O)c1cccnc1
inactive: endpoint: mean survival time, dose: 100.0 mg/kg/injection, schedule: Q04DX002 (ip), vehicle: saline 94 % of control | endpoint: mean survival time, dose: 200.0 mg/kg/injection, schedule: Q04DX002 (ip), vehicle: saline 94 % of control | endpoint: mean survival time, dose: 400.0 mg/kg/injection, schedule: Q04DX002 (ip), vehicle: saline 97 % of control

CCOC(=O)C1C(=O)N(c2ccccc2)C(=O)N1C (stereo not given)
inactive: [17] 94 % of control | [18] 93 % of control | [19] 94 % of control | [20] 98 % of control | [21] 100 % of control

CCCCN(C)c1ccc(N=Nc2cc(Cl)ccc2Cl)cc1
inactive: endpoint: mean survival time, dose: 25.0 mg/kg/injection, schedule: Q04DX002 (ip), vehicle: saline with Tween-80 96 % of control | endpoint: mean survival time, dose: 50.0 mg/kg/injection, schedule: Q04DX002 (ip), vehicle: saline with Tween-80 101 % of control | [22] 104 % of control

c1ccc(-n2c3ccccc3c3ccccc32)cc1
inactive: [14] 98 % of control | [15] 98 % of control | [16] 95 % of control

Cc1ccc2c(c1)CCCN2C(=O)c1ccccc1
inactive: [4] 89 % of control | [5] 92 % of control | [6] 94 % of control

CC(=O)OCC1OC(n2c(Br)nc3c(=O)[nH]c(N)nc32)C(OC(C)=O)C1OC(C)=O (stereo not given)
inactive: [11] 100 % of control | [12] 105 % of control | [13] 107 % of control

CC1CCCC2(C)CCC(C(C)(C)O)CC12 (stereo not given)
inactive: [1] 103 % of control | [2] 100 % of control | [3] 103 % of control

COc1ccc(OC)c(CC(CC(=O)O)C(C)=O)c1 (stereo not given)
inactive: [17] 96 % of control | [18] 100 % of control | [19] 96 % of control | [20] 96 % of control | [21] 100 % of control

c1ccc(Sc2cccc3c(-c4ccccc4)c4cccc5c4c(c23)C[S+]5c2ccccc2)cc1 (stereo not given)
inactive: endpoint: mean survival time, dose: 3.13 mg/kg/injection, schedule: Q04DX003 (ip), vehicle: saline with Tween-80 96 % of control | endpoint: mean survival time, dose: 6.25 mg/kg/injection, schedule: Q04DX003 (ip), vehicle: saline with Tween-80 96 % of control | endpoint: mean survival time, dose: 12.5 mg/kg/injection, schedule: Q04DX003 (ip), vehicle: saline with Tween-80 93 % of control

CC[C@H](CC[C@@H](C)[C@H]1CC[C@H]2[C@@H]3CC=C4C[C@@H](O)CC[C@]4(C)[C@H]3CC[C@]12C)C(C)C
inactive: [14] 89 % of control | [15] 101 % of control | [16] 95 % of control

CN1CCCC1CCNc1nc(C(Cl)(Cl)Cl)nc2cc(Cl)ccc12 (stereo not given)
inactive: [14] 98 % of control | [11] 95 % of control | [15] 98 % of control | [12] 90 % of control | [16] 101 % of control | [13] 100 % of control

O=C(NCCc1ccccc1)c1ccccc1
inactive: [14] 101 % of control | [15] 107 % of control | [16] 97 % of control

NC(=O)c1csc(C2OC(CO)CC2O)n1 (stereo not given)
inactive: endpoint: median survival time, dose: 37.5 mg/kg/injection, schedule: Q01DX005 (ip), vehicle: water 92 % of control | endpoint: median survival time, dose: 75.0 mg/kg/injection, schedule: Q01DX005 (ip), vehicle: water 107 % of control | endpoint: median survival time, dose: 125.0 mg/kg/injection, schedule: Q01DX005 (ip), vehicle: water 104 % of control | endpoint: median survival time, dose: 150.0 mg/kg/injection, schedule: Q01DX005 (ip), vehicle: water 102 % of control | endpoint: median survival time, dose: 250.0 mg/kg/injection, schedule: Q01DX005 (ip), vehicle: water 116 % of control | endpoint: median survival time, dose: 300.0 mg/kg/injection, schedule: Q01DX005 (ip), vehicle: water 109 % of control | endpoint: median survival time, dose: 500.0 mg/kg/injection, schedule: Q01DX005 (ip), vehicle: water 121 % of control

CCOC(=O)/C=C/C(=O)O.[Cu+2]
inactive: endpoint: mean survival time, dose: 1.56 mg/kg/injection, schedule: Q04DX003 (ip), vehicle: saline 108 % of control | endpoint: mean survival time, dose: 3.12 mg/kg/injection, schedule: Q04DX003 (ip), vehicle: saline 108 % of control | endpoint: mean survival time, dose: 6.25 mg/kg/injection, schedule: Q04DX003 (ip), vehicle: saline 104 % of control

COC(=O)C(Br)C(Br)c1ccccc1 (stereo not given)
inactive: [14] 101 % of control | [11] 103 % of control | [15] 101 % of control | [12] 106 % of control | [16] 95 % of control | [13] 106 % of control

COc1ccc(/C=C(\C#N)C(=O)NCCc2ccc(OC)c(OC)c2)cc1OC
inactive: [22] 95 % of control | endpoint: mean survival time, dose: 200.0 mg/kg/injection, schedule: Q04DX002 (ip), vehicle: saline with Tween-80 95 % of control | endpoint: mean survival time, dose: 400.0 mg/kg/injection, schedule: Q04DX002 (ip), vehicle: saline with Tween-80 95 % of control

O=C1CCC(=O)N1C1C=CC=CC=C1
inactive: [7] 98 % of control | endpoint: mean survival time, dose: 100.0 mg/kg/injection, schedule: Q04DX003 (ip), vehicle: acetone 107 % of control
